Reference: PMC12627933, “A First-In-Human Study of the SUMOylation Inhibitor Subasumstat in Patients with Advanced/Metastatic Solid Tumors or Relapsed/Refractory Hematologic Malignancies” (Cancer Research Communications, 2025)
Where two headings read alike, the source gives them in different places.

What was measured:
[1] = test system: tumor microenvironment (TME); test: Tumor microenvironment in paired tumor biopsies (multiplex immunofluorescence, PD-L1 22C3 IHC CPS); assay type: in vivo, human
Description: (§1) Blood samples for subasumstat–SUMO adduct formation and SUMO2/3 inhibition assessments were collected before dose and at 1, 4, and 8 hours after the infusion on C1D1 and C1D8. Blood samples for additional biomarker analyses were collected before dose on C1D1 and C1D8 and at 4, 8, and 24 hours after infusion on C1D1 and C1D8. Skin biopsies (used as surrogate tissue for solid tumors) were collected at screening and on C1D8 at 2 hours (±30 minutes) after end of infusion, and tumor biopsies were collected at screening and cycle 2 day 8 (C2D8; +7 days; whenever possible). In blood samples, a custom flow cytometry assay was utilized for detecting target engagement and SUMOylated protein levels in lymphocytes (including T-, B-, and NK-cell subsets). The assay included a PE-conjugated antibody specifically recognizing the SUMO–subasumstat adduct (MIL-113, anti–cysteinyl-TAK-981, Epitomics; refs. [14], [15], [22]) and an AF488-conjugated antibody recognizing SUMO2/3 conjugates (MBL International, cat. #M114-3, RRID: AB_592769). Peripheral blood cells were lysed/fixed, permeabilized (BD Biosciences), and stained with MIL-113 and M114-3 and with antibodies against CD45, CD3, CD19, CD16/CD56, and CD14. IHC assays for SUMO–subasumstat adduct and SUMO2/3 inhibition in skin biopsies and tumors were performed using MIL-113 and M114-3 antibodies. Activation of the IFNI pathway was assessed in peripheral blood by analysis of gene expression data (PanCancer IO 360 panel by NanoString for phase I and whole-transcriptome RNA sequencing data for phase II). Type I IFN gene signature was computed using geometric mean of the following genes: CCL2, CXCL10, DDX58, IRF7, ISG15, STAT1, and STAT2. These seven IFNI-regulated genes were selected prior to the trial, based on in vitro studies of the effect of subasumstat on human blood from 10 healthy donors analyzed on the NanoString PanCancer IO 360 panel. Plasma chemokines and cytokines were measured using the MesoScale Discovery platform (pro-inflammatory and chemokine panels, BioAgilytix). For assessment of NK- and T-cell activation, cells were suspended in buffer and incubated with the following monoclonal antibodies: APC-H7 mouse anti–human CD45 (BD Biosciences, cat. #560274), APC mouse anti–human CD69 (BD Biosciences, cat. #555533), BV421 mouse anti–human CD56 (BD Biosciences, cat. #562751), mouse anti–human CD16 PerCP-Cy5.5 (BD Biosciences, cat. #338440), BV510 mouse anti–human CD4 (BD Biosciences, cat. #563094), BV605 mouse anti–human CD8 (BD Biosciences, cat. #564116), and Alexa Fluor 700 anti–mouse CD3 antibody (BioLegend, cat. #100215), prior to assessment by flow cytometry using the BD Scientific FACSCanto flow cytometer (RRID: SCR_018055). Tumor PD-L1 expression level was assessed in paired tumor biopsies using the 22C3 PD-L1 IHC assay; combined positive score (CPS) was calculated for baseline and on-treatment tumor samples. The immune landscape in the tumor microenvironment (TME) was assessed using an integrated RNAscope and 27-marker MultiOmyx immunofluorescence panel.

[2] = target: T1, SUMO-activating enzyme (SAE) (Homo sapiens, UniProt Q9UBT2); test: Target engagement: SUMO–subasumstat adduct formation in blood lymphocytes, skin and tumor (flow cytometry, IHC); assay type: in vivo
T1 construct: from tissue; host or cells: patients' peripheral blood lymphocytes, skin biopsies and tumor biopsies
T1 sequence (Q9UBT2 1-640): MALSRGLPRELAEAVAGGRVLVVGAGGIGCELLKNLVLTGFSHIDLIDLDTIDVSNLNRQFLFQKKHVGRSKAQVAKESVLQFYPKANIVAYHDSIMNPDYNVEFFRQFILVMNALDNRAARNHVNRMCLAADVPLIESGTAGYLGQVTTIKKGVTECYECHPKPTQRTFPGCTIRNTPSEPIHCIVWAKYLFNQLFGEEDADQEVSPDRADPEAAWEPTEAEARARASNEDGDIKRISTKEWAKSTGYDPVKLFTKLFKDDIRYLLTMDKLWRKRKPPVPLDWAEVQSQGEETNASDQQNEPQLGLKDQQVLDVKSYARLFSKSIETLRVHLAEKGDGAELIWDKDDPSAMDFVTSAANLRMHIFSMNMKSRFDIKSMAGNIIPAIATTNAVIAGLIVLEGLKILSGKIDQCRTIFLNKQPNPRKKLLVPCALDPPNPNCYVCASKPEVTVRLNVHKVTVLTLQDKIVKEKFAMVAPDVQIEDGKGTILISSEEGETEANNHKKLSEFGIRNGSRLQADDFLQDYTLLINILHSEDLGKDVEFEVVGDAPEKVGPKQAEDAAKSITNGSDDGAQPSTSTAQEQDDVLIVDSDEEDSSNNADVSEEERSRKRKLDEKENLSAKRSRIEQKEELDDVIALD
T1 sequence (Q9UBE0 1-346 partner): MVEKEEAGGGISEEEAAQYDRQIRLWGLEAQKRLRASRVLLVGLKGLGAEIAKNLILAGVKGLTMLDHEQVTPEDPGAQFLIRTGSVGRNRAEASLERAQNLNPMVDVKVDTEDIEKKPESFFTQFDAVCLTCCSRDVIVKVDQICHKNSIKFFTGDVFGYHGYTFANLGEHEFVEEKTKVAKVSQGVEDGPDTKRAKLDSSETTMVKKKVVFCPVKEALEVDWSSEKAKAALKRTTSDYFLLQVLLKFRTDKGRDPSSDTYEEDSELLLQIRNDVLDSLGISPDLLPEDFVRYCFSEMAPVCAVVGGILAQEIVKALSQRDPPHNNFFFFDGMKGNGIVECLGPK
Description: as §1

[3] = test system: MSS colorectal cancer and non-squamous NSCLC; set-up: method as in ref 18 = [18]; 18. Goel S , Ulahannan SV , Olszanski AJ , LoRusso P , Sanborn RE , Sharma S , . A phase 1b, multicenter, dose-escalation study of subasumstat (TAK-981) in combination with pembrolizumab in patients; details: in combination with pembrolizumab, cited from earlier work
[4] = cervical cancer and melanoma biopsies

Cc1sc(C(=O)c2cncnc2N[C@@H]2C[C@H](COS(N)(=O)=O)[C@@H](O)C2)cc1[C@@H]1NCCc2ccc(Cl)cc21 [subasumstat]
T-cell infiltration in tumor ([1]; CPI-naïve cervical cancer and CPI-exposed melanoma and NSCLC samples): significant CD8^+ and CD4^+ T-cell infiltration
T-cell density in tumor ([1]; biopsies from three patients with MSS colorectal cancer): did not exhibit an increase in T-cell density
Activated CD11C+HLA-DR+ myeloid dendritic cells [1, 4]: increase in density
HLA class I expression on tumor cells [1, 4]: marked increase
T-cell activation (CD69 on CD4+ and CD8+ T cells) in tumor [1, 4]: significant increase in T-cell activation
PD-L1 CPS ([1]; paired tumor samples, C2D8): increased in most paired tumor samples
Regulatory T cells in tumor ([1]; same biopsies): no significant changes
Target engagement in tumor samples ([2]; all evaluated tumor samples, 8 patients 90 mg twice weekly (C2D8), 1 melanoma patient 25 mg twice weekly (C1D8)): robust target engagement
Dose level from which SUMO–subasumstat adduct formation was detected ([2]; peripheral blood lymphocytes, C1D1 and C1D8, phase I): ≥ 10 mg
Time to detection of SUMO–subasumstat adduct after end of infusion ([2]; peripheral blood lymphocytes, doses ≥10 mg): ≤ 1 h
Persistence of target engagement ([2]; peripheral blood lymphocytes, twice weekly and once weekly schedules): at least 8 hours
Dose from which adduct formation was observed in skin biopsies ([2]; skin biopsies 2 hours after the C1D8 dose): ≥ 10 mg
Antitumor activity ([3]; MSS colorectal cancer dose-expansion cohort): no activity was observed
Antitumor activity ([3]; relapsed/refractory MSS colorectal cancer and CPI-exposed non-squamous NSCLC, dose-escalation cohort): preliminary antitumor activity
